Tests used:
Format in all cases: in vivo, DBA/1 LacJ mice
[1] = system: anti-type II collagen antibody; settings: after seven weeks of treatment; for terminal anti-CII levels compared with control mice: p<0.01, prednisolone gavage, Formula III i.p.; for terminal anti-CII levels compared with titers at disease onset: prednisolone 10 mg/kg gavage, Formula III 40 mg/kg i.p.
Protocol: (§1) All mice were pre-bled prior to the start of the trial, subsequently at onset of arthritis and at the completion of the trial. Sera were separated and stored at −80° C. ELISA assays were performed to determine anti-type II collagen antibody levels and total immunoglobulin levels.
ELISA plates (Nunc-Immuno plates, Denmark) were coated with 100 μl of coating buffer (0.4M phosphate buffer ph7.6) containing 5 μg of type II collagen, at 4° C. overnight. Plates were washed 3 times with PBS containing 0.05% Tween 20 (Sigma, St. Louis, Mo.) and non specific binding was blocked by PBS containing 5% non fat milk overnight at 4° C. Mouse sera diluted to 1/100 in 5% milk/PBS was added to each well and incubated overnight at 4° C. Subsequently, the plates were washed six times in PBS containing 0.05% Tween-20 and incubated with alkaline phosphatase conjugated goat anti-mouse Ig (Southern Biotechnology Associates, Birmingham, Ala.) at 37° C. for 1 hour. Plates were washed 6 times again and developed for 40 minutes in the dark, using p-nitrophenyl phosphate (Sigma, St. Louis, Mo.) as a chromatogen substrate. The resulting optical density was measured at 405 nm by using a UV max spectrophotometer (Molecular Devices, CA). Negative pre-bleed control sera and a standard mouse anti-CII antiserum were titered on each plate to ensure uniformity of the assay. Antibody binding was expressed as OD405 units-blank.

[2] = system: Type II collagen-induced arthritis (CIA) in mice; test: Collagen-induced arthritis (CIA) mouse model, clinical assessment (involved paws, arthritis score); settings: for arthritis score vs saline control treated mice (FIG. 2), overall statement: CIA mice, route not specified; for Day post the start of therapy from which a significant reduction (p<0.02) in arthritis score was achieved: each agent at its regimen, Formula III via i.p.
Text: Type II collagen-induced arthritis (CIA) in mice is an accepted experimental model of arthritis with a number of pathological, immunological and genetic features in common with rheumatoid arthritis. This disease is induced by immunization of susceptible strains of mice with type II collagen, the major component of joint cartilage. A progressive, inflammatory arthritis develops in the majority of immunized animals, which is characterized clinically by erythema and edema, with affected paw width increases of typically 100%. A clinical scoring index has been developed to assess disease progression to joint distortion and spondylitis. […] Immunological laboratory findings include high antibody levels to type II collagen and hypergammaglobulinemia.
This study was designed to evaluate the anti-inflammatory and anti-arthritic activity of compound of Formula III using the CIA model by observing changes in immune parameters due to treatment. The animals were administered oral corticosteroid, Enbrel, an injectable TNF inhibitor, and compound of Formula III using both oral and parenteral delivery. Seventy-five DBA/1 LacJ mice 8-10 weeks of age were obtained from Jackson Labs and quarantined in our facility for 10 days prior to experimentation. All mice weighed >16 grams at the start of the experiment. Mice were pre-bled by retro-orbital puncture, and injected with 100 μg Bovine type II collagen in Freund's complete adjuvant (FCA) intradermally at the base of the tail. Mice were monitored by daily examination for the onset of disease. Mice that developed CIA between 20 days post immunization and 42 days post immunization were assigned to one of five treatment groups on a rotational basis (to normalize onset date), and ten mice were assigned to each group. For administration, compound of Formula III was solubilized in sterile saline. To facilitate drugs delivered by oral administration, carboxymethylcellulose was added to a final concentration of 4% in all gavage solutions. Compounds were administered according to the following schedule: • Group 1. 100 μl sterile saline vehicle injected intraperitoneally (i.p.)×3/week. • Group 2. 100 μl sterile saline containing compound of Formula III at 40 mg/kg injected i.p.×3/week. • Group 3. 100 μl sterile saline containing 100 μg Enbrel injected i.p.×3/week. • Group 4. 100 μl sterile saline containing compound of Formula III at 40 mg/kg gavaged×5/week.
Group 5. 100 μl sterile saline containing prednisolone 10 mg/kg gavaged×5/week.
Mice were weighed weekly, and overall health status noted. Arthritiic animals were clinically assessed by visual inspection five times per week, and paw swelling quantified by caliper measurements made three times per week, until seven weeks after the initial onset of arthritis. All animals were assessed individually from the time of disease onset, and the appropriate findings were entered into clinical report forms.

lymph node cells = test: Lymph node cell mitogen and antigen proliferative responses (MTT) from treated CIA mice; settings: lymphocytes from mice treated 40 mg/kg i.p.; p<0.05
Protocol: Spleen and lymph nodes were removed at sacrifice, and mitogen responses to Con A and LPS, and antigen proliferative responses to type II collagen were determined using standard techniques. Lymph nodes and spleens were harvested and 1 ml of cell suspension (2.5×10^6/ml) cultured in 12-well tissue culture plates (Costar, Corning, N.Y.) with various stimuli in complete RPMI-1640 medium. Cells were incubated for 3 days at 37° C. in a 5% CO2 atmosphere in the presence of mitogen or antigen. 20 µl of MTT (a mitochondrial enzyme substrate) solution (5 mg/ml; Sigma, St Louis, Mo.) was added per well. After 6 hours, the culture supernatant was discarded, and 200 µl of 10% SDS solution added to each well. After incubation at 37° C. overnight, the optical density at 590 nm was read using a microplate photospectrometer (Molecular Devices, CA). The mean and OD values, which provide a measure of cell proliferation, were recorded for each cell sample with respect to antigen stimulation. Antigen specific responses were expressed as (OD590 [Stimulated Culture]−OD590 [Spontaneous proliferation culture])/OD590 [Spontaneous proliferation culture].

total serum Ig = test: ELISA of total serum immunoglobulin levels in CIA mice; settings: prednisolone gavage; Formula III i.p.; vs control at disease onset or conclusion of trial
Protocol: as §1
Serum Ig levels was assessed using an ELISA assay. Dynatech Immulon I 96 well ELISA plates were coated with a 1/250 dilution of rabbit anti-mouse IgG (Axell) in PBS overnight at 4° C. Plates were washed ×3 with PBS containing 0.05% Tween, and blocked by the addition of 5% BSA in PBS. Serum samples diluted 1/400 in PBS/BSA was dispensed in triplicate, and a reference curve constructed by a doubling dilution titer of mouse Ig reference serum (Miles) from 1/500 to 1/256,000. The plate was incubated overnight at room temperature, and washed ×3 with PBS/Tween. One hundred μl of goat anti-IgG conjugated with alkaline phosphatase (Fisher-Biotek) (1:500 dilution in Milk/PBS/Tween) was added, and the incubation continued for 1 hour at 37° C. After washing×3 with PBS/Tween, 100 μl of paranitrophenyl phosphate solution (PNPP tablets, Sigma) in diethylolamine buffer was added to each well, and the reaction allowed to proceed for 20 minutes in the dark. The plate was read at 405 nm using a Photospectrometer (Molecular Devices), and the data analyzed using the SOFTmax analytical software package. […]

Question: `COc1cccc2c1[n+]([O-])c1cccc(O)c1[n+]2[O-]` [compound of Formula III] was tested. Which “terminal anti-CII levels compared with control mice” value [1] did it give?
Answer: significant reduction

Question: And the “terminal anti-CII levels compared with titers at disease onset” value [1]?
Answer: maintenance of titers equivalent to the levels at onset

Question: What about the “number of involved paws vs control mice” value ([2]; 40 mg/kg i.p. ×3/week or gavaged ×5/week, irrespective of the route of administration) of the same molecule?
Answer: did not significantly influence the number of involved paws

Question: And the “reduction in arthritis score vs saline control” value ([2]; 40 mg/kg i.p. ×3/week, p<0.02 from Day 23, p<0.007 at Day 24, sustained until end of trial)?
Answer: significant reduction

Question: And the “effect upon arthritis score vs saline control” value ([2]; 40 mg/kg oral gavage ×5/week)?
Answer: did not exert a statistically significant effect

Question: What about the “arthritis score vs saline control treated mice (FIG. 2), overall statement” value [2] of the same molecule?
Answer: marked effect upon the arthritis score

Question: What about the “Day post the start of therapy from which a significant reduction (p<0.02) in arthritis score was achieved” value [2] of the same molecule?
Answer: 23 days

Question: And the “lymph node cell response to LPS” value (lymph node cells)?
Answer: significant reduction

Question: And the “total serum Ig levels at the terminal bleed vs control mice” value (total serum Ig)?
Answer: this reduction was not significantly different

Question: What does the source list for `C[C@]12C=CC(=O)C=C1CC[C@@H]1[C@@H]2[C@@H](O)C[C@@]2(C)[C@H]1CC[C@]2(O)C(=O)CO` [prednisolone]?
Answer: terminal anti-CII levels compared with control mice [1]: significant reduction; terminal anti-CII levels compared with titers at disease onset [1]: minor decrease; arthritis score vs saline control treated mice (FIG. 2), overall statement [2]: significantly reduced the arthritis score; Day post the start of therapy from which a significant reduction (p<0.02) in arthritis score was achieved [2]: 12 days; number of involved (arthritic) paws vs control mice ([2]; prednisolone 10 mg/kg gavaged ×5/week, from Day 16 after arthritis onset throughout the study, p<0.002): significantly lower number of arthritic paws; reduction in arthritis score vs saline control ([2]; prednisolone 10 mg/kg gavaged ×5/week, p<0.02 from Day 12, p<0.001 at day 17, sustained for remainder of trial): significant reduction; total serum Ig levels at the terminal bleed vs control mice (total serum Ig): this reduction was not significantly different

Question: With Enbrel as the molecule, how does the “number of involved (arthritic) paws vs control mice” value ([2]; 100 μg Enbrel i.p. ×3/week, Day 25 through Day 28, p<0.05) read?
Answer: significantly lower number of arthritic paws

Question: What about the “reduction in arthritis score vs saline control” value ([2]; 100 μg Enbrel i.p. ×3/week, p<0.02 from Day 12, not sustained until 23 days of therapy) of the same molecule?
Answer: significant reduction

Question: What about the “arthritis score vs saline control treated mice (FIG. 2), overall statement” value [2] of the same molecule?
Answer: significantly reduced the arthritis score

Question: And the “Day post the start of therapy from which a significant reduction (p<0.02) in arthritis score was achieved” value [2]?
Answer: 12 days

— patent US8273881B2, “Phenazine compounds and use thereof in autoimmune and inflammatory diseases” (JJ Pharma, Inc., priority 2007, dated 2012)
